# Where no end group is shown, it is not given here.
# Columns and labels:
# [1] = tested on: cancer patients (lung, gastric, breast cancer) receiving chemotherapy; assay: Quality of life scored scale, randomized crossover open label trial of chemotherapy cycles with and without Tα1; format: in vivo, humans
# Protocol: (§1) Method: A randomized crossover open label trial was performed. A total of sixty patients, twenty with lung cancer, twenty with gastric cancer and twenty with breast cancer were studied during two complete cycles of chemotherapy. All patients were randomized into two groups. In group 1, patients received chemotherapy with thymosin α1 in the first cycle, and without thymosin α1 in the second cycle. While patients in group 2 received chemotherapy without thymosin α1 in the first cycle, and with thymosin α1 in the second cycle. The patients were treated as follows:
# (§2) Twenty lung cancer patients were treated with 100 mg of Etoposide IV on days 1-5 and 40 mg of Cisplatin I.V. on days 1-3 in a 21 day cycle.
# (§3) Twenty gastric cancer patients were treated with 100 mg of Etoposide IV on days 1-5, 30 mg/m^2 Calcium Leucovorin I.V. on days 1-5 and 500 mg/m^2 5-Fluorouricil (5-FU) I.V. on days 1-5.
# (§4) Twenty breast cancer patients were treated with 5-Fluorouricil 500 mg/m^2, Adriamycin I.V. 30 mg/m^2 I.V. on day 1 and cyclophosphamide 500 mg/m^2 I.V. on day 1.
# (§5) A mild anti-emetic consisting of 20 mg metoclopamide, I.M. and 5 mg Dexamethasone I.V. were given to all patients on days 1-5. All subjects on thymosin received six injections of 1.6 mg s.c. Tα1 on each of the four days immediately preceding the chemotherapy and on days two and four following chemotherapy. All patients who have completed the two cycles of chemotherapy, then were reallocated into two cohorts, A and B. Cohort A are patients with Tα1, and Cohort B are patients without Tα1.
# Analysis: Quality of life was analyzed using a scored scale for (1) loss of appetite, (2) loss of sleep, (3) fatigue, (4) reduction in daily activity, (5) decline in overall feeling, (6) depression and (7) nausea and vomiting. Maximum total score was 35 points.
# [2] = tested on: cancer patients (lung, gastric, breast cancer) receiving chemotherapy; assay: Nausea and vomiting classified according to WHO criteria, same trial; format: in vivo, humans; settings: Cohort A with Tα1, n 54, P < 0.0005
# Protocol: as §1, §2, §3, §4, §5
# cancer patients = assay: Side effects of thymosin α1 administration; format: in vivo, humans; settings: administration in conjunction with antineoplastics
# VIP receptor = settings: in vitro; cited from earlier work
substance,measurement,setting,value
"thymosin α1 (SDAAVDTSSEITTKDLKEKKEVVEEAEN; not fully specified; ends and bridges not checked; UniProt P06454 2-29, looked up) [Tα1, acidic polypeptide isolated from thymosin fraction 5, an immunomodulator that acts primarily by enhancing T-cell function]",Effect on quality of life scores,[1]; addition of Tα1 to chemotherapy cycles compared with cycles without Tα1,significantly increases the quality of life scores
same,"Fatigue, quality of life score","[1]; cycles with Tα1 (1.6 mg s.c., six injections) vs. cycles without Tα1 3.70, p = 0.0001",4.05 vs. 3.70 p = 0.0001
same,"Depression, quality of life score","[1]; cycles with Tα1 (1.6 mg s.c., six injections) vs. cycles without Tα1 3.72, p = 0.003",4.01 vs. 3.72 p = 0.003
same,"Reduction in Daily Activity, quality of life score","[1]; cycles with Tα1 (1.6 mg s.c., six injections) vs. cycles without Tα1 3.84, p = 0.0001",4.12 vs. 3.84 p = 0.0001
same,"Nausea and Vomiting, quality of life score","[1]; cycles with Tα1 (1.6 mg s.c., six injections) vs. cycles without Tα1 3.93, p = 0.001",4.29 vs. 3.93 p = 0.001
same,"Decline in Overall Feeling, quality of life score","[1]; cycles with Tα1 (1.6 mg s.c., six injections) vs. cycles without Tα1 3.94, p = 0.0001",4.32 vs. 3.94 p = 0.0001
same,"Loss of Appetite, quality of life score","[1]; cycles with Tα1 (1.6 mg s.c., six injections) vs. cycles without Tα1 3.99, p = 0.0001",4.33 vs. 3.99 p = 0.0001
same,"Loss of Sleep, quality of life score","[1]; cycles with Tα1 (1.6 mg s.c., six injections) vs. cycles without Tα1 4.10, p = 0.002",4.41 vs. 4.10 p = 0.002
same,"Nausea and vomiting WHO Gr. 4, number of patients",[2]; without Tα1 0,0
same,"Nausea and vomiting WHO Grade 0, number of patients",[2]; without Tα1 4/53,7/55
same,"Nausea and vomiting WHO Gr. 3, number of patients",[2]; without Tα1 11,1
same,"Nausea and vomiting WHO Gr. 1, number of patients",[2]; without Tα1 19,33
same,"Nausea and vomiting WHO Gr. 2, number of patients",[2]; without Tα1 19,13
same,Side effects of thymosin α1,cancer patients,does not appear to result in any side effects
same,VIP receptor binding,VIP receptor,has a VIP receptor binding effect

# — US6462017B1, “Method of reducing side effects of chemotherapy in cancer patients” (SciClone Pharmaceuticals, Inc., priority 2000, dated 2002)
